From patent US8163909B2, “Substituted hydroxyethyl amine compounds as beta-secretase modulators and methods of use” (Amgen Inc., priority 2007, dated 2012)
Read-outs that look alike come from different tables or passages of the source.

Legend:
CYP3A4 (CYP3A) = CYP3A4 (CYP3A) (Homo sapiens, UniProt P08684); assay: in vitro; conditions: microsomes, pH 7.4;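 further: inhibition of CYP3A-mediated 1-hydroxymidazolam formation after 10 min incubation with NADPH, quantified by HPLC MS relative to metabolite produced without test compound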
[1] = Microsomal stability assay, human liver microsomes;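 further: pooled human liver microsomes at 0.25 mg/mL with 1 µM compound and NADPH at 37 °C, pH 7.4, for 30 min, unchanged parent quantified by LC-MS/MS against the 0 min sample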
[2] = Microsomal stability assay, rat liver microsomes;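 further: rat liver microsomes (0.25 mg/mL) with about 1 µM compound plus 1 mM NADPH, pH 7.4, 37 °C for 30 min, parent left measured by LC-MS/MS against 0 min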
[3] = test system: Aβ40 in conditioned medium of cells stably expressing Amyloid Precursor Protein (APP); assay: In vitro BACE cell-based assay (Aβ40 in conditioned medium, sandwich ELISA); conditions: Homo sapiens;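 further: compounds added as a dilution series, secreted peptide quantified by europium time-resolved fluorescence readout, potency fitted from percent of control versus compound concentration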
[4] = biological target: Beta Secretase enzyme (BACE) (Homo sapiens, UniProt P56817); assay: In vitro enzymatic BACE FRET (fluorescence resonance energy transfer) assay; assay type: biochemical;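 further: fluorescence read after 1 h with 50 nM quenched peptide substrate spanning the BACE cleavage site, in pH 4.2 acetate buffer containing 10% DMSO and nonionic detergent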
CYP2D6 = CYP2D6 (Homo sapiens, UniProt P10635); assay: CYP2D6 inhibition assay (bufuralol, pooled human liver microsomes)
[5] = HEK293, HEK cell-based assay, IC50's in uM, read-out: HEK cell assay
[6] = BACE enzyme assay, IC50's in uM, read-out: BACE1 FRET assay
[7] = 2D6 IC50 (uM), CYP enzyme inhibition
[8] = HEK293, HEK cells, read-out: HEK cell assay (IC50)
[9] = read-out: BACE1 FRET assay (IC50)
[10] = HEK293, Table 2, HEK cells, read-out: HEK cell assay
[11] = Table 2, read-out: BACE1 FRET assay
[12] = 2D6 IC50, CYP enzyme inhibition
[13] = HEK293, cell-based assay, HEK cells, IC50's in uM, read-out: HEK cell assay
[14] = HEK293, HEK cell-based assay IC50, read-out: HEK cell assay
[15] = BACE enzyme assay IC50, read-out: BACE1 FRET assay
[16] = 2D6 IC50 (uM), CYP2D6 inhibition

Sequence of Beta Secretase enzyme (BACE) (P56817 46-501): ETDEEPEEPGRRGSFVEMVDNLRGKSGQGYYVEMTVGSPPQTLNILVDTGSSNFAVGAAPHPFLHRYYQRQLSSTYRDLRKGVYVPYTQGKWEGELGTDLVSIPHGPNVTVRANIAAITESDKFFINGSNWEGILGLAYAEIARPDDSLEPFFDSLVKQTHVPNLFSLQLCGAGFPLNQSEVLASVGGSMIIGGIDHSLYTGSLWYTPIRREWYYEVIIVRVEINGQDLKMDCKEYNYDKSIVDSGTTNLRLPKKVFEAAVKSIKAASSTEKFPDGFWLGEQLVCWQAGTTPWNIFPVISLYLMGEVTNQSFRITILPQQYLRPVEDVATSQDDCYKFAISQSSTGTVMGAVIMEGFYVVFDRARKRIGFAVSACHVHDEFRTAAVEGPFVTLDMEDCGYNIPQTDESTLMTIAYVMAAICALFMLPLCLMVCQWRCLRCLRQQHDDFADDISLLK
Sequence of CYP3A4 (CYP3A) (P08684 2-503): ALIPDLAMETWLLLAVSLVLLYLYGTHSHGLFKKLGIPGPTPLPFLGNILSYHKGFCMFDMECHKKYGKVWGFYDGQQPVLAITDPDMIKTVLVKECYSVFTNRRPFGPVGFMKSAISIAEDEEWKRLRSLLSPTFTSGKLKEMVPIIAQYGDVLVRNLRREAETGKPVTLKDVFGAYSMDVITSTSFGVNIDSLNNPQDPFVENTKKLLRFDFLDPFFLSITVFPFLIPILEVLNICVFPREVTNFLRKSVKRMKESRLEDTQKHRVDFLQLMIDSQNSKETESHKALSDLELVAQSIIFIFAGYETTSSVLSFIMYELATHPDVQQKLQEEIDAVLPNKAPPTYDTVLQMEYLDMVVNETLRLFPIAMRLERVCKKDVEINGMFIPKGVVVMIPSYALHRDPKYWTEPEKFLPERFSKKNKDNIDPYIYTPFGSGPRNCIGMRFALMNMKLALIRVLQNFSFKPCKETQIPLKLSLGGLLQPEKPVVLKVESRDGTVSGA
Sequence of CYP2D6 (P10635 whole entry): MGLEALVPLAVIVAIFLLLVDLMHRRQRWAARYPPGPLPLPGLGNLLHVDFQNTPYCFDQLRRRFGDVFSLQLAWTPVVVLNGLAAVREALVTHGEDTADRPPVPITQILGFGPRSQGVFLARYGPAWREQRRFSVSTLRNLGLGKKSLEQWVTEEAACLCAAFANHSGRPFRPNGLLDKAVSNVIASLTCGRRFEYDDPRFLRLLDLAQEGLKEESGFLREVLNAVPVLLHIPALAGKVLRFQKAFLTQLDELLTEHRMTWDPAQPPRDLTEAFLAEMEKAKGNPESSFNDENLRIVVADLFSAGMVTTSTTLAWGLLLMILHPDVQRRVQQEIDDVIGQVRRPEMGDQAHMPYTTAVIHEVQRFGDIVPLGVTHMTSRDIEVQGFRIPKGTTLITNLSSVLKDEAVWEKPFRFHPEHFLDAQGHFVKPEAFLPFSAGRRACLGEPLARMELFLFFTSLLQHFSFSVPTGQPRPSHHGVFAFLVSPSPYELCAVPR

SMILES	IC50 (CYP3A4 (CYP3A)) [nM]	HLM ([1]; human liver microsomal data) [µL/min/mg]	RLM ([2]; rat liver microsomal data) [µL/min/mg]	IC50 [3, 5] [µM]	IC50 [4, 6] [µM]	IC50 (CYP2D6; [7]) [µM]	HLM ([1]; human liver microsomes) [µL/min/mg]	RLM ([2]; rat liver microsomes) [µL/min/mg]	other results
COC(OC)C(=O)N[C@@H](Cc1cccc(F)c1)[C@H](O)CN[C@H]1CC2(CCC2)Oc2ncc(CC(C)(F)F)cc21 [compound 797]	1400	256	199	0.017	0.008	4.1			
C#Cc1cnc2c(c1)[C@@H](NC[C@@H](O)[C@H](Cc1cc(F)cc(-c3nccs3)c1)NC(=O)[C@@H](C)OC)CC1(CCC1)O2 [compound 784]	≤ 30	51	64	0.864	0.158	1			
COCC(=O)N[C@@H](Cc1cc(F)cc(F)c1)[C@H](O)CN[C@H]1CC2(CCC2)Oc2c(-c3ccncc3)cc(C3CC3)cc21 [compound 783]	300	73	107	0.029	0.031	0.3			
CC(=O)N[C@@H](Cc1cc(F)cc(F)c1)[C@H](O)CN[C@H]1CC2(CCC2)Oc2c(-c3ccncc3)cc(Cl)cc21 [compound 582]	100						97	829	IC50 [3, 8]: 0.057 µM; IC50 [4, 9]: 0.024 µM; IC50 (CYP2D6; 2D6 IC50, CYP2D6 inhibition): 0.4 µM
CC(C)(C)Cc1cnc2c(c1)[C@@H](NC[C@@H](O)[C@H](Cc1cccc(C#N)c1)NC(=O)[C@H]1CCCO1)CC1(CC(F)(F)C1)O2 [compound 472]	800	736	775						IC50 [3, 10]: 0.015 µM; IC50 [4, 11]: 0.005 µM; IC50 (CYP2D6; [12]): 7.1 µM
CO[C@H](C)C(=O)N[C@@H](Cc1cc(F)cc(-c2nccs2)c1)[C@H](O)CN[C@H]1CC2(CCC2)Oc2ncc(Br)cc21 [compound 852]	300	106	156		0.246				IC50 [3, 13]: 0.094 µM; IC50 (CYP2D6; [12]): 0.3 µM
COCC(=O)N[C@@H](Cc1cc(F)cc(F)c1)[C@H](O)CN[C@H]1CC2(CCC2)Oc2c(-c3ccncc3)cc(CC(C)C)cc21 [compound 586]	100						31	65	IC50 [3, 8]: 0.006 µM; IC50 [4, 9]: 0.009 µM; IC50 (CYP2D6; 2D6 IC50, CYP2D6 inhibition): 1.3 µM
COC(OC)C(=O)N[C@@H](Cc1cc(F)cc(-c2nccs2)c1)[C@H](O)CN[C@H]1CC2(CCC2)Oc2ncc(CC(C)(F)F)cc21 [compound 818]	600	41	46	0.059	0.013	2.3			
CC(=O)C(C)(C)C(=O)N[C@@H](Cc1ccc2c(c1)OCO2)[C@H](O)CN[C@H]1CC2(CCC2)Oc2ncc(CC(C)(C)C)cc21 [compound 457]	100	44	90						IC50 [3, 10]: 0.905 µM; IC50 [4, 11]: 0.792 µM; IC50 (CYP2D6; [12]): 2.4 µM
COCC(=O)N[C@@H](Cc1ccc2c(c1)OCO2)[C@H](O)CN[C@H]1CC2(CCC2)Oc2c1cc(CC(C)C)nc2-c1ccncc1 [compound 669]	≤ 30						45	77	IC50 [3, 14]: 0.087 µM; IC50 [4, 15]: 0.034 µM; IC50 (CYP2D6; [16]): 0.3 µM
CC(=O)N[C@@H](Cc1cccc(-c2cccnc2)c1)[C@H](O)CN[C@H]1CC2(CCC2)Oc2ncc(CC(C)(C)C)cc21 [compound 623]	160						829	601	IC50 [3, 8]: 0.006 µM; IC50 [4, 9]: 0.008 µM; IC50 (CYP2D6; 2D6 IC50, CYP2D6 inhibition): 1.3 µM
CCO[C@H](C)C(=O)N[C@@H](Cc1ccc2c(c1)OCO2)[C@H](O)CN[C@H]1CC2(CCC2)Oc2ncc(CC(C)C)cc21 [compound 808]	100	49	179	0.414	0.138	2.3			
CC(C)(C)Cc1cnc2c(c1)[C@@H](NC[C@@H](O)[C@H](Cc1ccc(F)cc1)NC(=O)[C@H]1CN(Cc3cscn3)CCO1)CC1(CCC1)O2 [compound 774]	200	111	57	0.006	0.017	5.3			
CO[C@H](C)C(=O)N[C@@H](Cc1cc(F)cc(F)c1)[C@H](O)CN[C@H]1CC2(CCC2)Oc2cnc(CC(C)C)cc21 [compound 688]	200						921	399	IC50 [3, 14]: 0.036 µM; IC50 [4, 15]: 0.009 µM; IC50 (CYP2D6; [16]): 3 µM
COCC(=O)N[C@@H](Cc1ccc(F)c(-c2cncs2)c1)[C@H](O)CN[C@H]1CC2(CCC2)Oc2ncc(CC(C)(C)C)cc21 [compound 684, N-((1S,2R)-3-(((4′S)-6′-(2,2-dimethylpropyl)-3′,4′-dihydrospiro[cyclobutane-1,2′-pyrano[2,3-b]pyridin]-4′-yl)amino)-1-(4-fluoro-3-(1,3-thiazol-5-yl)benzyl)-2-hydroxypropyl)-2-methoxyacetamide]	100						56	114	IC50 [3, 14]: 0.012 µM; IC50 [4, 15]: 0.005 µM; IC50 (CYP2D6; [16]): 0.2 µM
CO[C@H](C)C(=O)N[C@@H](Cc1cc(F)cc(F)c1)[C@H](O)CN[C@H]1CC2(CCC2)Oc2c1cc(C1CC1)cc2-n1ccnc1 [compound 707]	≤ 30						14	39	IC50 [3, 14]: 0.028 µM; IC50 [4, 15]: 0.114 µM; IC50 (CYP2D6; [16]): 0.6 µM
CC(=O)C(C)(C)C(=O)N[C@@H](Cc1cccc(F)c1)[C@H](O)CN[C@H]1CC2(CCC2)Oc2ncc(CC(C)(C)C)cc21 [compound 467]	400	399	292						IC50 [3, 10]: 0.209 µM; IC50 [4, 11]: 0.063 µM; IC50 (CYP2D6; [12]): 7.3 µM
CC(C)(C)CCC(=O)N[C@@H](Cc1ccccc1)[C@H](O)CN[C@H]1CC2(CCC2)Oc2ncc(CC(C)(C)C)cc21 [compound 819]	200	736	543	0.074	0.013	2			
COCC(=O)N[C@@H](Cc1cccc(-n2cccn2)c1)[C@H](O)CN[C@H]1CC2(CCC2)Oc2ncc(CC(C)(C)C)cc21 [compound 854]	600	515	210		0.007				IC50 [3, 13]: 0.007 µM; IC50 (CYP2D6; [12]): 2.5 µM
CC(C)(C)Cc1cnc2c(c1)[C@@H](NC[C@@H](O)[C@H](Cc1ccc(F)cc1)NC(=O)[C@@H]1CN(Cc3nccs3)CCO1)CC1(CCC1)O2 [compound 769]	400	706	333	0.013	0.01	5.2			
COCC(=O)N[C@@H](Cc1cccc(F)c1)[C@H](O)CN[C@H]1CC2(CCC2)Oc2c(-c3ccnc(N(C)C)c3)cc(CC(C)(C)C)cc21 [Example 439, N-((1S,2R)-3-(((4S)-8-(2-(dimethylamino)-4-pyridinyl)-6-(2,2-dimethylpropyl)-3,4-dihydrospiro[chromene-2,1′-cyclobutan]-4-yl)amino)-1-(3-fluorobenzyl)-2-hydroxypropyl)-2-methoxyacetamide]	1300						601	515	IC50 [3, 14]: 0.005 µM; IC50 [4, 15]: 0.02 µM; IC50 (CYP2D6; [16]): 4.1 µM
